Our source for the IC50 values is US9403810B2, “Carboxamide derivatives” (Novartis AG, priority 2014, dated 2016).

As usually defined, the IC50 is the concentration at which inhibition is half-maximal. Higher therefore signals weaker potency.

Smurf-1, sequence (Q9HCE7 whole entry): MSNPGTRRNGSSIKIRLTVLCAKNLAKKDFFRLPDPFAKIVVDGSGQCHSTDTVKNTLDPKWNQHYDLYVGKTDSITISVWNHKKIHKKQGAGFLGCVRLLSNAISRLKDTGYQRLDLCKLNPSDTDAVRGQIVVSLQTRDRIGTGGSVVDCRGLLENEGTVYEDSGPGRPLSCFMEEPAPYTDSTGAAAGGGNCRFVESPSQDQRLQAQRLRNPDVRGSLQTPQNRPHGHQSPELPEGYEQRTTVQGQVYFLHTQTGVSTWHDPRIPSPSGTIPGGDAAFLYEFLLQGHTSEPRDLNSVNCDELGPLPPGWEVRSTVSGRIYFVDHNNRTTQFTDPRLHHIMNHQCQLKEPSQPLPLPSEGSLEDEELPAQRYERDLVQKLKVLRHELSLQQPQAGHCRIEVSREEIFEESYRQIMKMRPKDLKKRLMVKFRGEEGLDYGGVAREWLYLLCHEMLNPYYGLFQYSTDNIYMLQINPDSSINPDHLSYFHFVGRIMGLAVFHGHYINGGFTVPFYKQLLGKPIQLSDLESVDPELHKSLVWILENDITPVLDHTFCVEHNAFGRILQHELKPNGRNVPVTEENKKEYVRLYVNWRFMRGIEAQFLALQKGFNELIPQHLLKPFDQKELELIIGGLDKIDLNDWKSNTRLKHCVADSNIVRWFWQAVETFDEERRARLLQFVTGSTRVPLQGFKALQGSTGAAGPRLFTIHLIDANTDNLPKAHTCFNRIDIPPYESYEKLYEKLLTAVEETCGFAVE

The target of the assay is Smurf-1 (Homo sapiens (Human), UniProt Q9HCE7). Briefly: HECT E3 ligase autoubiquitinylation TR-FRET assay (Smurf-1). The assay is classed as biochemical. The note with it: 8-point dose-response curve, 3 nM to 10 uM; 45 min incubation. From the text:
To determine the HECT E3 ligase selectivity of the compounds, a panel of biochemical HECT E3 ligase autoubiquitinylation assays was employed (Smurf-1, Smurf-2, WWP1, WWP2, ITCH, Nedd4, Nedd4L and E6AP). The conjugation of ubiquitin to a protein substrate is a multistep process. In an initial ATP-requiring step, a thioester bond is formed between the carboxyl terminus of ubiquitin and an internal cystein residue of the ubiquitin-activating enzyme (E1). Activated ubiquitin is then transferred to a specific cystein residue of an ubiquitin-conjugating enzyme (E2). E2s donate ubiquitin to a HECT E3 ligase (E3) from which it is transferred to the substrate protein. HECT E3 ligases can auto-ubiquitinylate. This event is detected in the TR-FRET (Time-Resolved Fluorescence Resonance Energy Transfer) assay used in this panel. The reaction mix contains E1, E2, tagged-E3, biotin-conjugated ubiquitin, the compound and ATP in a suitable buffer and is incubated for 45 minutes to allow auto-ubiquitinylation of the E3 ligase. To measure the extent of ubiquitinylated E3 ligase by TR-FRET, the donor fluorophore Europium cryptate (Eu3+ cryptate), conjugated to streptavidin which subsequently binds to biotinylated ubiquitin, and the modified allophycocyanin XL665 (HTRF® primary acceptor fluorophore) coupled to a tag-specific antibody (HA, His or GST), which recognizes the respective E3 ligase fusion proteins, are added after the reaction is complete. When these two fluorophores are brought together by a bimolecular interaction (in this case ubiquitinylation of the E3 ligase), a portion of the energy captured by the Cryptate during excitation is released through fluorescence emission at 620 nm, while the remaining energy is transferred to XL665. This energy is then released by XL665 as specific fluorescence at 665 nm. Light at 665 nm is emitted only through FRET with Europium.
Test and reference compounds are prepared at 180× [final] in 90% DMSO, and diluted 1:3 in 90% DMSO.
For the biochemical assay panel, 50 nl of the test compounds, reference compounds and buffer/DMSO control are transferred to the respective wells of a 384-well white GREINER “SMALL VOLUME” PS plate. The assay panel is run at room temperature on a Biomek FX liquid handling workstation. To the assay plates containing 50 nl compound or control solutions in 90% DMSO, 4.5 ul of E3 ligase solution were added per well, followed by 4.5 ul of the pre-incubated E1/E2/Ub mix or the pre-diluted ubiquitin (LOW control). Plates are shaken vigorously after each addition. In this assay the compound concentrations range from 3 nM to 10 uM in an 8-point dose-response curve.
After an incubation time of 45 min in the dark, the plates are transferred into the Pherastar fluorescence reader to measure the TR-FRET signal.
A general note: TR-FRET usually uses a lanthanide donor and a delayed reading to cut background.
The compound `CO[C@@H]1C[C@@H](C(C)(C)C)O[C@@H](c2onc(C(=O)Nc3c(C)n(C)n(C4CCC4)c3=O)c2C)C1.CO[C@@H]1C[C@@H](c2onc(C(=O)Nc3c(C)n(C)n(C4CCC4)c3=O)c2C)O[C@@H](C(C)(C)C)C1` (mixture of isomers) [Example 14, 5-((2R,4R,6S)-6-(tert-butyl)-4-methoxytetrahydro-2H-pyran-2-yl)-N-(2-cyclobutyl-1,5-dimethyl-3-oxo-2,3-dihydro-1H-pyrazol-4-yl)-4-methylisoxazole-3-carboxamide and 5-((2S,4S,6R)-6-(tert-butyl)-4-methoxytetrahydro-2H-pyran-2-yl)-N-(2-cyclobutyl-1,5-dimethyl-3-oxo-2,3-dihydro-1H-pyrazol-4-yl)-4-methylisoxazole-3-carboxamide] yielded an IC50 of 2.5 µM.

The compound `Cc1c(C(=O)Nc2c(C)n(C)n(C3CCCCC3)c2=O)noc1C1CC=CC(C(C)C)O1` (mixture of isomers) [Example 18] returned an IC50 of 0.091 µM.

Compound `CO[C@H]1C[C@@H](c2onc(C(=O)Nc3c(C)n(C)n(C4CCCCC4)c3=O)c2C)O[C@@H](C(C)(C)C)C1` (racemic) [Example 13, 5-((2S,4R,6R)-6-(tert-butyl)-4-methoxytetrahydro-2H-pyran-2-yl)-N-(2-cyclohexyl-1,5-dimethyl-3-oxo-2,3-dihydro-1H-pyrazol-4-yl)-4-methylisoxazole-3-carboxamide and 5-((2R,4S,6S)-6-(tert-butyl)-4-methoxytetrahydro-2H-pyran-2-yl)-N-(2-cyclohexyl-1,5-dimethyl-3-oxo-2,3-dihydro-1H-pyrazol-4-yl)-4-methylisoxazole-3-carboxamide] yielded an IC50 of 0.64 µM.

`Cc1c(C(=O)Nc2c(C)n(C)n(C3CCCCC3)c2=O)noc1[C@@H]1CC=C[C@H](C)O1` (racemic) [Example 19, N-(2-cyclohexyl-1,5-dimethyl-3-oxo-2,3-dihydro-1H-pyrazol-4-yl)-4-methyl-5-((2S,6S)-6-methyl-3,6-dihydro-2H-pyran-2-yl)isoxazole-3-carboxamide and N-(2-cyclohexyl-1,5-dimethyl-3-oxo-2,3-dihydro-1H-pyrazol-4-yl)-4-methyl-5-((2R,6R)-6-methyl-3,6-dihydro-2H-pyran-2-yl)isoxazole-3-carboxamide] yielded an IC50 of 1.8 µM.

As for `CO[C@H]1C[C@@H](c2onc(C(=O)Nc3c(C)n(C)n(C4CCCCC4)c3=O)c2C)O[C@@H](C(C)(C)C)C1` (single isomer, unassigned) [Example 13a, 5-((2S,4R,6R)-6-(tert-butyl)-4-methoxytetrahydro-2H-pyran-2-yl)-N-(2-cyclohexyl-1,5-dimethyl-3-oxo-2,3-dihydro-1H-pyrazol-4-yl)-4-methylisoxazole-3-carboxamide or 5-((2R,4S,6S)-6-(tert-butyl)-4-methoxytetrahydro-2H-pyran-2-yl)-N-(2-cyclohexyl-1,5-dimethyl-3-oxo-2,3-dihydro-1H-pyrazol-4-yl)-4-methylisoxazole-3-carboxamide], the IC50 was found to be 0.29 µM.

Regarding `CO[C@H]1C[C@@H](c2onc(C(=O)Nc3c(C)n(C)n(C4CCCCC4)c3=O)c2C)O[C@@H](C(C)(C)C)C1` (single isomer, unassigned) [Example 13b, 5-((2S,4R,6R)-6-(tert-butyl)-4-methoxytetrahydro-2H-pyran-2-yl)-N-(2-cyclohexyl-1,5-dimethyl-3-oxo-2,3-dihydro-1H-pyrazol-4-yl)-4-methylisoxazole-3-carboxamide or 5-((2R,4S,6S)-6-(tert-butyl)-4-methoxytetrahydro-2H-pyran-2-yl)-N-(2-cyclohexyl-1,5-dimethyl-3-oxo-2,3-dihydro-1H-pyrazol-4-yl)-4-methylisoxazole-3-carboxamide], 0.73 µM corresponded to half-maximal inhibition (IC50).

Consider `Cc1c(C(=O)Nc2c(C)n(C)n(C3CCC3)c2=O)noc1[C@@H]1CCC[C@H](C(C)(C)C)O1` (single isomer, unassigned) [Example 15a, 5-((2S,6R)-6-(tert-Butyl)tetrahydro-2H-pyran-2-yl)-N-(2-cyclobutyl-1,5-dimethyl-3-oxo-2,3-dihydro-1H-pyrazol-4-yl)-4-methylisoxazole-3-carboxamide or 5-((2R,6S)-6-(tert-Butyl)tetrahydro-2H-pyran-2-yl)-N-(2-cyclobutyl-1,5-dimethyl-3-oxo-2,3-dihydro-1H-pyrazol-4-yl)-4-methylisoxazole-3-carboxamide], for which the IC50 came out at 0.29 µM.

`Cc1c(C(=O)Nc2c(C)n(C)n(C3CCC3)c2=O)noc1[C@H]1CCC[C@@H](C(C)(C)C)O1` (single isomer, unassigned) [Example 15b, 5-((2R,6S)-6-(tert-butyl)tetrahydro-2H-pyran-2-yl)-N-(2-cyclobutyl-1,5-dimethyl-3-oxo-2,3-dihydro-1H-pyrazol-4-yl)-4-methylisoxazole-3-carboxamide or 5-((2S,6R)-6-(tert-Butyl)tetrahydro-2H-pyran-2-yl)-N-(2-cyclobutyl-1,5-dimethyl-3-oxo-2,3-dihydro-1H-pyrazol-4-yl)-4-methylisoxazole-3-carboxamide] displayed an IC50 of 0.63 µM.

`Cc1c(C(=O)Nc2c(C)n(C)n(C3CCCCC3)c2=O)noc1[C@@H]1CCC[C@H](C(C)(C)C)O1` (single isomer, unassigned) [Example 16, 5-((2S,6R)-6-(tert-butyl)tetrahydro-2H-pyran-2-yl)-N-(2-cyclohexyl-1,5-dimethyl-3-oxo-2,3-dihydro-1H-pyrazol-4-yl)-4-methylisoxazole-3-carboxamide or 5-((2R,6S)-6-(tert-butyl)tetrahydro-2H-pyran-2-yl)-N-(2-cyclohexyl-1,5-dimethyl-3-oxo-2,3-dihydro-1H-pyrazol-4-yl)-4-methylisoxazole-3-carboxamide] came in with an IC50 of 0.037 µM.

For `Cc1c(C(=O)Nc2c(C)n(C)n(C3CCCCC3)c2=O)noc1C1=CCC(C(C)C)CC1` (centres unmarked) [Example 1, N-(2-Cyclohexyl-1,5-dimethyl-3-oxo-2,3-dihydro-1H-pyrazol-4-yl)-5-(4-isopropylcyclohex-1-en-1-yl)-4-methylisoxazole-3-carboxamide], the IC50 came to 0.0028 µM.

For the compound `CCC1CC(C)CC=C1c1onc(C(=O)Nc2c(C)n(C)n(C3CCCCC3)c2=O)c1C` (centres unmarked) [Example 1.1, N-(2-Cyclohexyl-1,5-dimethyl-3-oxo-2,3-dihydro-1H-pyrazol-4-yl)-5-(6-ethyl-4-methylcyclohex-1-en-1-yl)-4-methylisoxazole-3-carboxamide], the IC50 came out at 0.0021 µM. This IC50 and that of the compound before are within 1.5-fold of each other.

In the case of `Cc1c(C(=O)Nc2c(C)n(C)n(C3CCCCC3)c2=O)noc1C1=CCCCC1(C)C` [Example 1.2, N-(2-Cyclohexyl-1,5-dimethyl-3-oxo-2,3-dihydro-1H-pyrazol-4-yl)-5-(6,6-dimethylcyclohex-1-en-1-yl)-4-methylisoxazole-3-carboxamide], the half-maximal inhibitory concentration (IC50) is 0.014 µM. Compared with the last compound, the IC50 is about 6.7-fold higher.

Compound `CCC1CC=C(c2onc(C(=O)Nc3c(C)n(C)n(C4CCCCC4)c3=O)c2C)CC1` (centres unmarked) [Example 1.3, N-(2-Cyclohexyl-1,5-dimethyl-3-oxo-2,3-dihydro-1H-pyrazol-4-yl)-5-(4-ethylcyclohex-1-en-1-yl)-4-methylisoxazole-3-carboxamide] yielded a 50% inhibitory concentration (IC50) of 0.0018 µM.

The compound `Cc1c(C(=O)Nc2c(C)n(C)n(C3CCCCC3)c2=O)noc1C1=CCC(C(C)(C)C)CC1` (centres unmarked) [Example 1.4, 5-(4-(tert-Butyl)cyclohex-1-en-1-yl)-N-(2-cyclohexyl-1,5-dimethyl-3-oxo-2,3-dihydro-1H-pyrazol-4-yl)-4-methylisoxazole-3-carboxamide] yielded an IC50 of 0.0032 µM.

In turn, `Cc1c(C(=O)Nc2c(C)n(C)n(C3CCCCC3)c2=O)noc1C1=CCCCCC1` [Example 1.6, 5-(Cyclohept-1-en-1-yl)-N-(2-cyclohexyl-1,5-dimethyl-3-oxo-2,3-dihydro-1H-pyrazol-4-yl)-4-methylisoxazole-3-carboxamide] showed a half-maximal inhibitory concentration (IC50) of 0.008 µM.

In turn, `Cc1c(C(=O)Nc2c(C)n(C)n(C3CCCCC3)c2=O)noc1C1=CCC(C(F)(F)F)CC1` (centres unmarked) [Example 1.7, N-(2-Cyclohexyl-1,5-dimethyl-3-oxo-2,3-dihydro-1H-pyrazol-4-yl)-4-methyl-5-(4-(trifluoromethyl)cyclohex-1-en-1-yl)isoxazole-3-carboxamide] yielded an IC50 of 0.033 µM.

The compound `Cc1c(C(=O)Nc2c(C)n(C)n(C3CCCCC3)c2=O)noc1C1=CCC2(CCCC2)CC1` [Example 2, N-(2-Cyclohexyl-1,5-dimethyl-3-oxo-2,3-dihydro-1H-pyrazol-4-yl)-4-methyl-5-(spiro[4.5]dec-7-en-8-yl)isoxazole-3-carboxamide] returned an IC50 of 0.0025 µM.
